Assay results from US20150065709A1, “Aminoquinazoline Derivative And Use Thereof In Preparing Anti-Malignant Tumor Medicament” (METABOMICS, INC, priority 2012, published 2015).
Read-outs that look alike come from different tables or passages of the source.

How the values were obtained:
[1] = molecular target: EGFR kinases (Homo sapiens, UniProt P00533); assay: Reversible inhibition test of enzyme activity of EGFR kinases; assay type: biochemical
[2] = system: H1975 human non-small cell lung cancer tumor cells; assay: Transplanted tumor in nude mice, initial H1975 test; assay type: in vivo, nude mice (BALB/c)
Protocol: H1975 human non-small cell lung cancer tumor cells were inoculated into 18 nude mice (BALB/c, male, 5-6 weeks of age), and when the mean tumor volume reaches 150 mm^3 the nude mice were randomized into three groups, including: control group (5 nude mice), 20 mg compound Ie/kg/day dose group (8 nude mice) and 75 mg Gefitinib/kg/day (5 nude mice). Test compounds were continuously administrated orally for 21 days. Tumor size and body weight of nude mice were recorded twice weekly from the first day of administration. […] was calculated using the formula (1×w^2), wherein 1 and w respectively represents the maximum and minimum size in each measurement. The change relation of mean tumor volume with the days after tumor transplantation was graphed according to the calculation results.

[3] = system: H1975 (non-small cell lung cancer); assay: Transplanted tumor in nude mice, further H1975 model; assay type: in vivo, nude mice (BALB/c); details: 6.7, 13.4, 20.1 mg/kg/day orally for 21 days
Source text: (§1) Furthermore, more pharmacological models of tumor cell lines in nude mice were utilized to validate the inhibitory effects of compound Ie. The test method was specifically described as follows: H1975, A549, HCC827, A431, N87, MDA-MD-468 and CAL27 tumor cells respectively were inoculated into nude mice (BALB/c, male, 5-6 weeks of age), and when the mean tumor volume reaches 150 mm^3 mice was randomized into groups. The H1975 tumor model in nude mice includes one positive control group and three dosage groups of compound Ie (6.7 mg/kg/day, 13.4 mg/kg/day, and 20.1 mg/kg/day. The A549 tumor model in nude mice includes one positive control group, two dosage groups of compound Ie (10 mg/kg/day, 20 mg/kg/day), and one dosage group of Docetaxel (12 mg/kg/day). The HCC827 tumor model in nude mice includes one positive control group, two dosage groups of compound Ie (0.5 mg/kg/day, 2.5 mg/kg/day), and one dosage group of Erlotinib (12.5 mg/kg/day). The A431 tumor model in nude mice includes one positive control group, two dosage groups of compound Ie (2.5 mg/kg/day, 5 mg/kg/day), and one dosage group of Erlotinib (50 mg/kg/day). […] The tumor size and body weight of nude mice were recorded twice weekly from the first day of administration. The tumor volume was calculated using formula (1×w^2), wherein 1 and w respectively represents the maximum and minimum size in each measurement. […]

[4] = system: A549 (non-small cell lung cancer); assay: Transplanted tumor in nude mice, A549 model; assay type: in vivo, nude mice (BALB/c)
Source text: as §1

[5] = system: HCC827 (non-small cell lung cancer); assay: Transplanted tumor in nude mice, HCC827 model; assay type: in vivo, nude mice (BALB/c)
Source text: as §1

[6] = system: A431(EGFR); assay: Transplanted tumor in nude mice, A431 model; assay type: in vivo, nude mice (BALB/c)
Source text: as §1

[7] = system: N87(gastric cancer); assay: Transplanted tumor in nude mice, N87 model; assay type: in vivo, nude mice (BALB/c)
Source text: as §1

[8] = system: MDA-MD-468 (breast cancer); assay: Transplanted tumor in nude mice, MDA-MD-468 model; assay type: in vivo, nude mice (BALB/c)
Source text: as §1

[9] = system: CAL27 (head and neck cancer); assay: Transplanted tumor in nude mice, CAL27 model; assay type: in vivo, nude mice (BALB/c); details: 10 mg/kg/day orally for 21 days
Source text: as §1

[10] = Pharmacokinetic experiments in CD-1 mice; assay type: in vivo; details: male, mouse, plasma; for half-life: read-out: Terminal t1/2 (converted)
Protocol: Experiment animals: CD-1 mice, male, 6-7 weeks of age; body weight: 20-25 g; Preparation of samples: the test compounds respectively were formulated to 0.2 mg/mL (for intravenous administration) and 1.0 mg/mL (for oral administration) for use. Administration routes: oral administration/intravenous administration. Amount and frequency of administration: 5 mL/kg for single administration.
Sample collection: blood was collected at the time points of 5 min, 15 min, 30 min, 1 h, 2 h, 4 h, 8 h and 24 h, about […] whole blood was collected from 3 animals at each time point. All of the animals were euthanized after the experiments.
Sample analysis: the collected samples were detected by LC-MS/MS, and the instrument model is SHIMADZU20A-API4000.
(§2) Pharmacokinetic data analysis: the obtained plasma concentration data were fitted and calculated using WinNolin according to non-compartment model.

[11] = Long-term toxicity experiment (28 days) in dogs; assay type: in vivo
Protocol: Experiment Animals: rats, male, 6-8 weeks of age, body weight: 180-250 g; dogs, male, about 24 months, body weight: 7-10 kg.
Preparation of sample: in rat's experiments the mixed formulation powder of the compound Ie was formulated into 0.1, 0.3 and 1 mg/mL homogeneous suspension for use; administration route: oral administration; […]. In dog's experiments the tablets of compound Ie were fed to dogs. […].
Sample collection: blood was collected at the time points of 1, 10, 20 and 28 days respectively, about 120-200 μL whole blood was collected from 3 animals at each time point. Blood was collected at 1 h, 4 h, 8 h and 24 h after administration.
Sample analysis: the collected samples were detected by LC-MS/MS, and the instrument model was SHIMADZU20 A-API4000.
as §2

[12] = 5, 10 mg/kg/day orally for 21 days

Sequence of EGFR kinases (P00533 25-1210): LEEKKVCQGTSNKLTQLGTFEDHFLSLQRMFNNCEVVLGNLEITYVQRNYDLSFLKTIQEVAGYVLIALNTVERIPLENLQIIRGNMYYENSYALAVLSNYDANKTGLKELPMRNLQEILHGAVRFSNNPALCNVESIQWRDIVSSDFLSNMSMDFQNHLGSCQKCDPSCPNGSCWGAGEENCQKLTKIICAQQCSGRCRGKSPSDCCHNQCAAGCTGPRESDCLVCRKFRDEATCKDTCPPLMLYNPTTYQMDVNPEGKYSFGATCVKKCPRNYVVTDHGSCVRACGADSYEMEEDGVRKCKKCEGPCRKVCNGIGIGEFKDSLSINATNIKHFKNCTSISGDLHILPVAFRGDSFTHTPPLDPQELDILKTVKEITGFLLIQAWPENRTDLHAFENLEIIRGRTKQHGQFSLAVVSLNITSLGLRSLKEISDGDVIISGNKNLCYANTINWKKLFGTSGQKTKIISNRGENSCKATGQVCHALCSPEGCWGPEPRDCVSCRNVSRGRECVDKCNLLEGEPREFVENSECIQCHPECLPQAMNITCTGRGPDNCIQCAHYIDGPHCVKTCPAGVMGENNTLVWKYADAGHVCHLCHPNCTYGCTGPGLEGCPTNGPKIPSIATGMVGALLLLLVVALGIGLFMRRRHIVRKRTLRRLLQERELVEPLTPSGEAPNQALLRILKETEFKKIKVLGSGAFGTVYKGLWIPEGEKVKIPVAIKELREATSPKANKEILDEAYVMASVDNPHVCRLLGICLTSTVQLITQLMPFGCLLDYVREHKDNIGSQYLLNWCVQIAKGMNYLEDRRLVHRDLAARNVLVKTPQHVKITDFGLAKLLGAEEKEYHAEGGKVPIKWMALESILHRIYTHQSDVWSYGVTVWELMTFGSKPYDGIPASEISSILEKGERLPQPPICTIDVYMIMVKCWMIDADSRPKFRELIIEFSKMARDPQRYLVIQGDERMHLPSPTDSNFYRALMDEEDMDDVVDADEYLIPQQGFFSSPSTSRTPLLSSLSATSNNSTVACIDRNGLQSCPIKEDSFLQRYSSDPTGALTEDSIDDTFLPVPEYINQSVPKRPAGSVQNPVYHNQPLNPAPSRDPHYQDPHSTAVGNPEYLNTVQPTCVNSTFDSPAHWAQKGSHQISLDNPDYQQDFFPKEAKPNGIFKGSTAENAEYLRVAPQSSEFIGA

Which results are given for `CN(C)C/C=C/C(=O)Nc1cc2c(Nc3ccc(F)c(Cl)c3)ncnc2cc1OC(F)F` [Compound Ie]?
reversibility of inhibition of EGFR kinases [1]: irreversibility; T/C % ([2]; H1975 tumor model, 20 mg compound Ie/kg/day orally for 21 days): 59%; therapeutic effect on H1975 tumor model ([2]; compound Ie 20 mg/kg/day, Gefitinib 75 mg/kg/day, orally for 21 days): good therapeutic effect; inhibitory and therapeutic effects on H1975 tumor model [3]: strong inhibitory effects and therapeutic effects; inhibitory and therapeutic effects on A549 tumor model ([4]; 10, 20 mg/kg/day orally for 21 days): strong inhibitory effects and therapeutic effects; inhibitory effects on tumor cell growth compared with other drugs, A549 model ([4]; versus Docetaxel (12 mg/kg/day)): stronger inhibitory effects; inhibitory and therapeutic effects on HCC827 tumor model ([5]; 0.5, 2.5 mg/kg/day orally for 21 days): strong inhibitory effects and therapeutic effects; inhibitory effects on tumor cell growth compared with other drugs, HCC827 model ([5]; versus Erlotinib (12.5 mg/kg/day)): stronger inhibitory effects; inhibitory and therapeutic effects on A431 tumor model ([6]; 2.5, 5 mg/kg/day orally for 21 days): strong inhibitory effects and therapeutic effects; inhibitory effects on tumor cell growth compared with other drugs, A431 model ([6]; versus Erlotinib (50 mg/kg/day)): stronger inhibitory effects; inhibitory and therapeutic effects on N87 tumor model [7, 12]: strong inhibitory effects and therapeutic effects; inhibitory effects on tumor cell growth compared with other drugs, N87 model ([7]; versus Lapatinib (90 mg/kg/day, twice daily)): stronger inhibitory effects; inhibitory and therapeutic effects on MDA-MD-468 tumor model [8, 12]: strong inhibitory effects and therapeutic effects; inhibitory effects on tumor cell growth compared with other drugs, MDA-MD-468 model ([8]; versus Docetaxel (12 mg/kg/week) and Afatinib (30 mg/kg/day)): stronger inhibitory effects; inhibitory and therapeutic effects on CAL27 tumor model [9]: strong inhibitory effects and therapeutic effects; AUC(0-inf) ([10]; 1 mg/kg Intravenous Injection): 167 ng·h/mL; AUC(0-t) ([10]; 1 mg/kg Intravenous Injection): 137 ng·h/mL; MRT inf ([10]; 1 mg/kg Intravenous Injection): 2.88 h; clearance ([10]; 1 mg/kg Intravenous Injection): 115 mL/min/kg; half-life ([10]; 1 mg/kg Intravenous Injection): 2.31 h; Vd ([10]; 1 mg/kg Intravenous Injection, read-out: Vss): 18.9 L/kg; AUC(0-inf) ([10]; 5 mg/kg Oral Administration): 1600 ng·h/mL; AUC(0-t) ([10]; 5 mg/kg Oral Administration): 1150 ng·h/mL; Cmax ([10]; 5 mg/kg Oral Administration): 92.3 ng/mL; Tmax ([10]; 5 mg/kg Oral Administration): 4.33 h; half-life ([10]; 5 mg/kg Oral Administration): 7.11 h; toxicity reaction ([11]; dog, in vivo, 1 mg/kg): No toxicity reaction; toxicity reaction ([11]; dogs, 5 mg/kg, 28 days, reaction of Afatinib group greater than compound Ie group): toxicity reactions
